Experimental data taken from US8107711B2, “User interface method and system for management and control of automated image processing in high content screening or high throughput screening” (Vala Sciences, Inc., priority 2008, dated 2012).

System: IL-8 mRNA
Test: IL-8 mRNA assay (Quantigene reagent set) quantified by automated image processing
Format: cell-based
From the text: Through use of inexpensive reagents and simple protocols a transcription assay can be conducted in which mRNA is synthesized and then captured. The location and number of individual mRNA species captured can be visualized in cells and tissue sections by fluorescence-based detection and quantified by automated image processing.
For visualization in images, a probe is used which binds to target mRNA species with very high specificity. It is possible to generate probes to virtually any known sequence. Preferably, such probes are hybridized to the target mRNAs in cell or tissue samples that have been fixed and permeabilized. A fluorescent reagent may then added, which binds to the probe. When slides and well plates containing cultured cells are processed in this manner, and viewed with fluorescence microscopy, bright spots (mRNA loci) are apparent that correspond to individual copies of the target mRNA.
To quantify gene transcription, the mRNA loci can be individually counted for each cell. While this can be done manually, by loading such images in a general purpose image analysis program, manual analysis is very laborious and time consuming due to fatigue and inconsistency between researchers. A convenient, user-friendly, and accurate alternative may be provided by an image processing algorithm, which may be in the form of a Windows® compatible, Java-based software system, specifically engineered for this application. With reference to FIG. 1, for example, such a system identifies individual cells, and quantifies the number of mRNA loci on a per cell basis in fields of view imaged for nuclei (shown in blue with DAPI staining), and for mRNA (shown in green using fluorescent reagents). Results produced by such a system may be input into a quantitative modeling system (such as a spreadsheet process) in order to organize, quantify, model, and present the results for interpretation and analysis.
FIG. 2 illustrates the performance of an mRNA assay and quantification by an image processing algorithm in an experimental setting, using a Quantigene® reagent set available from Panomics, Inc., Fremont, Calif. and an automated image processing system available from Vala Sciences, Inc. In this assay, cells were exposed to different concentrations of phorbol 12-myristate 13-acetate (PMA), and analyzed for the copy number of IL-8 mRNA. For control cells (exposed to 0 PMA), essentially no IL-8 mRNA were detected (0.05/cell). In contrast, exposure to PMA led to a dramatic increase in the presence of the loci with an EC50 of between 0.1 and 1 ng/ml PMA.
FIG. 6 illustrates in a general way how an image processing algorithm may operate to obtain results from images in the source folder. An example of one such algorithm designed for processing images of mRNA transcription is the CyteSeer™-ViewRNA process available from Vala Sciences, Inc. The algorithm starts with a nuclear image (such as those in the left panels of FIGS. 1 and 2), and identifies all of the nuclei within the field of view. A nuclear mask for each cell is established. […] One or more sets of experimental data may then be calculated by the automated image processing system, on a per cell basis, using the result images or masks. Preferably, these experimental data are presented and arranged according to a file convention and are placed into one or more files that can be transported, loaded, or otherwise made available to a quantitative modeling system (for example, a spreadsheet process). […]

## CCCCCCCCCCCCCC(=O)O[C@@H]1[C@@H](C)[C@@]2(O)[C@@H](C=C(CO)C[C@]3(O)C(=O)C(C)=C[C@@H]23)[C@@H]2C(C)(C)[C@]12OC(C)=O [PMA, phorbol 12-myristate 13-acetate]
0.1 ng/ml PMA, well E15
  RNA spot count: 14.3 spots/cell
1 ng/ml PMA vs control well C15
  fold increase in Area Rm: 3000 fold
1 ng/ml PMA, well G15
  RNA spot count: 84.1 spots/cell
1 ng/ml PMA, well G15 (control well C15 <1)
  Area Rm, the average area, per cell, of the RNA mask: > 1100
PMA vs control (Table in FIG. 12)
  fold increase in TII Ri Rm, the total intensity of the spots/cell: 8000 fold
